Test results published in patent US20250145619A1, “KHK INHIBITOR, PREPARATION METHOD THEREFOR AND USE THEREOF” (YOUNGENE THERAPEUTICS CO., LTD, priority 2022, published 2025).

Biological target: KHK—C (Homo sapiens (Human), UniProt P50053)
Assay: KHK—C ADP-Glo kinase inhibitory activity assay
Type: biochemical
Details: 1 nM KHK—C, 200 μM D-Fructose, 100 μM ATP, ADP-Glo luminescence
Text: (KHK—C ADP-Glo Kinase Inhibitory Activity Assay)
Y=Bottom+(Top−Bottom)/(1+10^((LogIC50−X)×HillSlope)) • X: Log value of compound concentration • Y: Inhibition ratio (%)
[formula] • Negative control: DMSO

Chain of KHK—C (P50053 whole entry): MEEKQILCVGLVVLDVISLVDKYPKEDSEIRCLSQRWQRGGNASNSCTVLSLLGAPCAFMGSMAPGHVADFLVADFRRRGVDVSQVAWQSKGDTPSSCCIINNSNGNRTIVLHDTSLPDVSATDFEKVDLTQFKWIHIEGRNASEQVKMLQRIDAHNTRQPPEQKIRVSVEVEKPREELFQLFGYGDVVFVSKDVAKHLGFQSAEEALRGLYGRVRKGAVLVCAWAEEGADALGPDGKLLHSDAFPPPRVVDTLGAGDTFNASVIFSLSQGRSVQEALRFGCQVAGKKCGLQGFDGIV

Row | Compound | IC50 [nM]
1 | C[C@H]1CCN1c1nc(N2CC3(CC(C(=O)O)C3)C2)cc(C(F)(F)F)c1C#N [Example 1, (S)-2-(5-cyano-6-(2-methylazetidine-1-yl)-4-(trifluoromethyl)pyridin-2-yl)-2-azaspiro[3.3]heptan-6-carboxylic acid] | 27.9
2 | C[C@H]1CCN1c1nc(N2CC3(CCC(C(=O)O)CC3)C2)cc(C(F)(F)F)c1C#N [Example 2, (S)-2-(5-cyano-6-(2-methylazetidine-1-yl)-4-(trifluoromethyl)pyridin-2-yl)-2-azaspiro[3.5]nonan-7-carboxylic acid] | 143
3 | C[C@H]1CCN1c1nc(N2CCC3(CC2)CC(C(=O)O)C3)cc(C(F)(F)F)c1C#N [Example 3, (S)-7-(5-cyano-6-(2-methylazetidine-1-yl)-4-(trifluoromethyl)pyridin-2-yl)-7-azaspiro[3.5]nonan-2-carboxylic acid] | 115
4 | C[C@H]1CCN1c1nc(N2CC3(C2)CS(=O)(=O)C3)cc(C(F)(F)F)c1C#N [Example 4, (S)-6-(2,2-dioxa-2-thioxa-6-azaspiro[3.3]heptan-6-yl)-2-(2-methylazetidine-1-yl)-4-(trifluoromethyl)nicotinonitrile] | 198
5 | C[C@H]1[C@H](O)CN1c1nc(N2CC3(CC(C(=O)O)C3)C2)cc(C(F)(F)F)c1C#N [Example 5, 2-(5-cyano-6-((2S,3R)-3-hydroxy-2-methylazetidine-1-yl)-4-(trifluoromethyl)pyridin-2-yl)-2-azaspiro[3.3]heptan-6-carboxylic acid] | 110
6 | C[C@H]1CCN1c1nc(N2CC3(CCC(C(=O)O)C3)C2)cc(C(F)(F)F)c1C#N (stereo partly drawn) [Example 7, 2-(5-cyano-6-((S)-2-methylazetidine-1-yl)-4-(trifluoromethyl)pyridin-2-yl)-2-azaspiro[3.4]octan-6-carboxylic acid] | 36
7 | C[C@H]1CCN1c1nc(N2C[C@@H]3[C@@H](CC(=O)O)[C@@H]3C2)cc(C(F)(F)F)c1C#N [Example 8, 2-((1R,5S,6R)-3-(5-cyano-6-((S)-2-methylazetidine-1-yl)-4-(trifluoromethyl)pyridin-2-yl)-3-azabicyclo[3.1.0]hexan-6-yl)acetic acid] | 0.17
8 | C[C@H]1CCN1c1nc(N2CC3(CC(CC(=O)O)C3)C2)cc(C(F)(F)F)c1C#N [Example 9, (S)-2-(2-(5-cyano-6-(2-methylazetidine-1-yl)-4-(trifluoromethyl)pyridin-2-yl)-2-azaspiro[3.3]heptan-6-yl)acetic acid] | 27
9 | CC(C(=O)O)[C@H]1[C@@H]2CN(c3cc(C(F)(F)F)c(C#N)c(N4CC[C@@H]4C)n3)C[C@@H]21 (stereo partly drawn) [Example 10, (R)-2-((1R,5S,6R)-3-(5-cyano-6-((S)-2-methylazetidine-1-yl)-4-(trifluoromethyl)pyridin-2-yl)-3-azabicyclo[3.1.0]hexan-6-yl)propionic acid] | 12.6
10 | C[C@H]1CCN1c1nc(N2CCC(CCC(=O)O)C2)cc(C(F)(F)F)c1C#N (stereo partly drawn) [Example 11, 3-(1-(5-cyano-6-((S)-2-methylazetidine-1-yl)-4-(trifluoromethyl)pyridin-2-yl)pyrrolidin-3-yl)propionic acid] | 12.6
11 | C[C@H]1CCN1c1nc(N2CC3(CN(CC(=O)O)C3)C2)cc(C(F)(F)F)c1C#N [Example 15, (S)-2-(6-(5-cyano-6-(2-methylazetidine-1-yl)-4-(trifluoromethyl)pyridin-2-yl)-2,6-diazaspiro[3.3]heptan-2-yl)acetic acid] | 212
12 | C[C@H]1CCN1c1nc(N2CCC3(CC(C(=O)O)C3)C2)cc(C(F)(F)F)c1C(N)=O (stereo partly drawn) [Example 16, (S)-6-(5-aminoformyl-6-(2-methylazetidine-1-yl)-4-(trifluoromethyl)pyridin-2-yl)-6-azaspiro[3.4]octan-2-carboxylic acid] | 6300
13 | C[C@H]1CCN1c1nc(N2CC3(C2)CS(=O)(=O)C3)cc(C(F)(F)F)c1C(N)=O [Example 17, (S)-6-(2,2-dioxa-2-thioxa-6-azaspiro[3.3]heptan-6-yl)-2-(2-methylazetidine-1-yl)-4-(trifluoromethyl)nicotinamide] | > 10000
14 | C[C@@H](C(=O)O)[C@H]1[C@@H]2CN(c3cc(C(F)(F)F)c(C#N)c(N4CC[C@@H]4C)n3)C[C@@H]21 [Example 18, (R)-2-((1R,5S,6R)-3-(5-cyano-6-((S)-2-methylazetidine-1-yl)-4-(trifluoromethyl)pyridin-2-yl)-3-azabicyclo[3.1.0]hexan-6-yl)propionic acid] | 100
15 | C[C@H](C(=O)O)[C@H]1[C@@H]2CN(c3cc(C(F)(F)F)c(C#N)c(N4CC[C@@H]4C)n3)C[C@@H]21 [Example 19, (S)-2-((1R,5S,6R)-3-(5-cyano-6-((S)-2-methylazetidine-1-yl)-4-(trifluoromethyl)pyridin-2-yl)-3-azabicyclo[3.1.0]hexan-6-yl)propionic acid] | 24.7
16 | C[C@H]1CCN1c1nc(N2CC[C@H](CCC(=O)O)C2)cc(C(F)(F)F)c1C#N [Example 20, 3-((S)-1-(5-cyano-6-((S)-2-methylazetidine-1-yl)-4-(trifluoromethyl)pyridin-2-yl)pyrrolidin-3-yl)propionic acid] | 15.4
17 | C[C@H]1CCN1c1nc(N2CC[C@@H](CCC(=O)O)C2)cc(C(F)(F)F)c1C#N [Example 21, 3-((R)-1-(5-cyano-6-((S)-2-methylazetidine-1-yl)-4-(trifluoromethyl)pyridin-2-yl)pyrrolidin-3-yl)propionic acid] | 81.2
18 | C[C@H]1CCN1c1nc(N2CC3(CC(C(=O)O)C3)C2)c2c(n1)C(F)(F)CC2 [Example 24, (S)-2-(7,7-difluoro-2-(2-methylazetidine-1-yl)-6,7-dihydro-5H-cyclopentadiene[d]pyrimidin-4-yl)-2-azaspiro[3.3]heptan-6-carboxylic acid] | 78.3
19 | C[C@H]1CCN1c1nc(N2CC(CC(=O)O)C2)c2c(n1)C(F)(F)CC2 [Example 25, (S)-2-(1-(7,7-difluoro-2-(2-methylazetidine-1-yl)-6,7-dihydro-5H-cyclopentadiene[d]pyrimidin-4-yl)azetidine-3-yl)acetic acid] | 47
20 | C[C@H]1CCN1c1nc(N2CCC3(CC(C(=O)O)C3)C2)c2c(n1)C(F)(F)CC2 (stereo partly drawn) [Example 26, (S)-6-(7,7-difluoro-2-(2-methylazetidine-1-yl)-6,7-dihydro-5H-cyclopentadiene[d]pyrimidin-4-yl)-6-azaspiro[3.4]octan-2-carboxylic acid] | 42.9
21 | C[C@H]1CCN1c1nc(N2CC3(CCC(C(=O)O)C3)C2)c2c(n1)C(F)(F)CC2 (stereo partly drawn) [Example 27, 2-(7,7-difluoro-2-((S)-2-methylazetidine-1-yl)-6,7-dihydro-5H-cyclopentadiene[d]pyrimidin-4-yl)-2-azaspiro[3.4]octan-6-carboxylic acid] | 59
22 | CC(=O)N[C@@H]1CN(c2nc(N3CC4(CC(C(=O)O)C4)C3)c3c(n2)C(F)(F)CC3)[C@H]1C [Example 28, 2-(2-((2S,3R)-3-acetamido-2-methylazetidine-1-yl)-7,7-difluoro-6,7-dihydro-5H-cyclopentadiene[d]pyrimidin-4-yl)-2-azaspiro[3.3]heptan-6-carboxylic acid] | > 10000
23 | CN[C@@H]1CN(c2nc(N3CC4(CC(C(=O)O)C4)C3)c3c(n2)C(F)(F)CC3)[C@H]1C [Example 29, 2-(7,7-difluoro-2-((2S,3R)-2-methyl-3-(methylamino)azetidine-1-yl)-6,7-dihydro-5H-cyclopentadiene[d]pyrimidin-4-yl)-2-azaspiro[3.3]heptan-6-carboxylic acid] | > 10000
24 | CO[C@@H]1CN(c2nc(N3CC4(CC(C(=O)O)C4)C3)c3c(n2)C(F)(F)CC3)[C@H]1C [Example 30, 2-(7,7-difluoro-2-((2S,3R)-3-methoxy-2-methylazetidine-1-yl)-6,7-dihydro-5H-cyclopentadiene[d]pyrimidin-4-yl)-2-azaspiro[3.3]heptan-6-carboxylic acid] | > 10000
25 | C[C@H]1[C@H](O)CN1c1nc(N2CC3(CC(C(=O)O)C3)C2)c2c(n1)C(F)(F)CC2 [Example 31, 2-(7,7-difluoro-2-((2S,3R)-3-hydroxy-2-methylazetidine-1-yl)-6,7-dihydro-5H-cyclopentadiene[d]pyrimidin-4-yl)-2-azaspiro[3.3]heptan-6-carboxylic acid] | 134
26 | C[C@H]1CCN1c1nc(N2CCC(CC(=O)O)C2)c2c(n1)C(F)(F)CC2 (stereo partly drawn) [Example 32, 2-(1-(7,7-difluoro-2-((S)-2-methylazetidine-1-yl)-6,7-dihydro-5H-cyclopentadiene[d]pyrimidin-4-yl)pyrrolidin-3-yl)acetic acid] | 10.4
27 | C[C@H]1CCN1c1nc(N2CCC(CC(=O)O)CC2)c2c(n1)C(F)(F)CC2 [Example 33, (S)-2-(1-(7,7-difluoro-2-(2-methylazetidine-1-yl)-6,7-dihydro-5H-cyclopentadiene[d]pyrimidin-4-yl)piperidin-4-yl)acetic acid] | 52.8
28 | C[C@H]1CCN1c1nc(N2CC3(CC(CC(=O)O)C3)C2)c2c(n1)C(F)(F)CC2 [Example 34, (S)-2-(2-(7,7-difluoro-2-(2-methylazetidine-1-yl)-6,7-dihydro-5H-cyclopentadiene[d]pyrimidin-4-yl)-2-azaspiro[3.3]heptan-6-yl)acetic acid] | 40
29 | C[C@H]1CCN1c1nc(N2CC3CN(CC(=O)O)CC3C2)c2c(n1)C(F)(F)CC2 (stereo partly drawn) [Example 35, 2-(5-(7,7-difluoro-2-((S)-2-methylazetidine-1-yl)-6,7-dihydro-5H-cyclopentadiene[c]pyrimidin-4-yl)hexahydropyrrolo[3,4-c]pyrrolo-2(1H)-yl)acetic acid] | 142
30 | C[C@H]1CCN1c1nc(N2CC[C@H](CC(=O)O)C2)c2c(n1)C(F)(F)CC2 [Example 36, 2-((R)-1-(7,7-difluoro-2-((S)-2-methylazetidine-1-yl)-6,7-dihydro-5H-cyclopentadiene[d]pyrimidin-4-yl)pyrrolidin-3-yl)acetic acid] | 13.6
